Legend:
A498 = assay: NCI60 one-dose screen (10 μM), Renal Cancer; assay type: cell-based; conditions: Homo sapiens; 10 μM; A498, Renal Cancer; read-out: Growth percent rate
HOP-62 = assay: NCI60 one-dose screen (10 μM), Non-small Cell Lung Cancer; assay type: cell-based; conditions: Homo sapiens; 10 μM; HOP-62, Non-small Cell Lung Cancer; read-out: Growth percent rate
HT29 = assay: NCI60 one-dose screen (10 μM), Colon Cancer; assay type: cell-based; conditions: Homo sapiens, HT-29; 10 μM; HT29, Colon Cancer; read-out: Growth percent rate
OVCAR-4 = assay: NCI60 one-dose screen (10 μM), Ovarian Cancer; assay type: cell-based; conditions: Homo sapiens; 10 μM; OVCAR-4, Ovarian Cancer; read-out: Growth percent rate
UACC-257 = assay: NCI60 one-dose screen (10 μM), Melanoma; assay type: cell-based; conditions: Homo sapiens; 10 μM; UACC-257, Melanoma; read-out: Growth percent rate
MOLT-4 = assay: NCI60 one-dose screen (10 μM), Leukemia; assay type: cell-based, human; conditions: Homo sapiens; 10 μM; MOLT-4, Leukemia; read-out: Growth percent rate
A549/ATCC = assay: NCI60 one-dose screen (10 μM), Non-small Cell Lung Cancer; assay type: cell-based; conditions: Homo sapiens; 10 μM; A549/ATCC, Non-small Cell Lung Cancer; read-out: Growth percent rate
SK-MEL-2 = assay: NCI60 one-dose screen (10 μM), Melanoma; assay type: cell-based; conditions: Homo sapiens; 10 μM; SK-MEL-2, Melanoma; read-out: Growth percent rate
NCI-H460 = assay: NCI60 one-dose screen (10 μM), Non-small Cell Lung Cancer; assay type: cell-based; conditions: Homo sapiens; 10 μM; NCI-H460, Non-small Cell Lung Cancer; read-out: Growth percent rate
M14 = assay: NCI60 one-dose screen (10 μM), Melanoma; assay type: cell-based; conditions: Homo sapiens; 10 μM; M14, Melanoma; read-out: Growth percent rate
MCF7 = assay: NCI60 one-dose screen (10 μM), Breast Cancer; assay type: cell-based; conditions: Homo sapiens; 10 μM; MCF7, Breast Cancer; read-out: Growth percent rate
OVCAR-3 = assay: NCI60 one-dose screen (10 μM), Ovarian Cancer; assay type: cell-based; conditions: Homo sapiens; 10 μM; OVCAR-3, Ovarian Cancer; read-out: Growth percent rate
RPMI-8226 = assay: NCI60 one-dose screen (10 μM), Leukemia; assay type: cell-based; conditions: Homo sapiens; 10 μM; RPMI-8226, Leukemia; read-out: Growth percent rate
SK-MEL-5 = assay: NCI60 one-dose screen (10 μM), Melanoma; assay type: cell-based, human
KM12 = assay: NCI60 one-dose screen (10 μM), Colon Cancer; assay type: cell-based, human; conditions: Homo sapiens; 10 μM; KM12, Colon Cancer; read-out: Growth percent rate
MALME-3M = assay: NCI60 one-dose screen (10 μM), Melanoma; assay type: cell-based; conditions: Homo sapiens; 10 μM; MALME-3M, Melanoma; read-out: Growth percent rate
HL-60(TB) = assay: NCI60 one-dose screen (10 μM), Leukemia; assay type: cell-based; conditions: Homo sapiens; 10 μM; HL-60(TB), Leukemia; read-out: Growth percent rate
SF-268 = assay: NCI60 one-dose screen (10 μM), CNS Cancer; assay type: cell-based; conditions: Homo sapiens; 10 μM; SF-268, CNS Cancer; read-out: Growth percent rate
IGROV1 = assay: NCI60 one-dose screen (10 μM), Ovarian Cancer; assay type: cell-based; conditions: Homo sapiens, IGROV-1; 10 μM; IGROV1, Ovarian Cancer; read-out: Growth percent rate
NCI-H322M = assay: NCI60 one-dose screen (10 μM), Non-small Cell Lung Cancer; assay type: cell-based; conditions: Homo sapiens, 10 μM, Non-small Cell Lung Cancer, read-out: Growth percent rate
SF-295 = assay: NCI60 one-dose screen (10 μM), CNS Cancer; assay type: cell-based; conditions: Homo sapiens; 10 μM; SF-295, CNS Cancer; read-out: Growth percent rate
SNB-75 = assay: NCI60 one-dose screen (10 μM), CNS Cancer; assay type: cell-based, human; conditions: Homo sapiens; 10 μM; SNB-75, CNS Cancer; read-out: Growth percent rate
786–0 = assay: NCI60 one-dose screen (10 μM), Renal Cancer; assay type: cell-based; conditions: Homo sapiens; 10 μM; 786-0, Renal Cancer; read-out: Growth percent rate
MDA-MB-435 = assay: NCI60 one-dose screen (10 μM), Melanoma; assay type: cell-based; conditions: Homo sapiens; 10 μM; MDA-MB-435, Melanoma; read-out: Growth percent rate
U251 = assay: NCI60 one-dose screen (10 μM), CNS Cancer; assay type: cell-based; conditions: Homo sapiens, U-251; 10 μM; U251, CNS Cancer; read-out: Growth percent rate
K-562 = assay: NCI60 one-dose screen (10 μM), Leukemia; assay type: cell-based; conditions: Homo sapiens, K562; 10 μM; K-562, Leukemia; read-out: Growth percent rate
[1] = test system: 60 human tumor cell lines (NCI60); assay: NCI60 one-dose screen (10 μM), whole panel; assay type: cell-based; conditions: 10 μM; mean over 60 human cancer cell lines; read-out: Growth percent rate, Mean
CCRF-CEM = assay: NCI60 one-dose screen (10 μM), Leukemia; assay type: cell-based; conditions: Homo sapiens, 10 μM, Leukemia, read-out: Growth percent rate
NCI-H522 = assay: NCI60 one-dose screen (10 μM), Non-small Cell Lung Cancer; assay type: cell-based; conditions: Homo sapiens; 10 μM; NCI-H522, Non-small Cell Lung Cancer; read-out: Growth percent rate
CAKI-1 = assay: NCI60 one-dose screen (10 μM), Renal Cancer; assay type: cell-based; conditions: Homo sapiens; 10 μM; CAKI-1, Renal Cancer; read-out: Growth percent rate
SW-620 = assay: NCI60 one-dose screen (10 μM), Colon Cancer; assay type: cell-based; conditions: Homo sapiens; 10 μM; SW-620, Colon Cancer; read-out: Growth percent rate
OVCAR-8 = assay: NCI60 one-dose screen (10 μM), Ovarian Cancer; assay type: cell-based; conditions: Homo sapiens; 10 μM; OVCAR-8, Ovarian Cancer; read-out: Growth percent rate
HCT-116 = assay: NCI60 one-dose screen (10 μM), Colon Cancer; assay type: cell-based; conditions: Homo sapiens; 10 μM; HCT-116, Colon Cancer; read-out: Growth percent rate
TK-10 = assay: NCI60 one-dose screen (10 μM), Renal Cancer; assay type: cell-based; conditions: Homo sapiens; 10 μM; TK-10, Renal Cancer; read-out: Growth percent rate
HCC-2998 = assay: NCI60 one-dose screen (10 μM), Colon Cancer; assay type: cell-based; conditions: Homo sapiens; 10 μM; HCC-2998, Colon Cancer; read-out: Growth percent rate
SK-MEL-28 = assay: NCI60 one-dose screen (10 μM), Melanoma; assay type: cell-based; conditions: Homo sapiens; 10 μM; SK-MEL-28, Melanoma; read-out: Growth percent rate
EKVX = assay: NCI60 one-dose screen (10 μM), Non-small Cell Lung Cancer; assay type: cell-based; conditions: Homo sapiens, 10 μM, Non-small Cell Lung Cancer, read-out: Growth percent rate
NCI-H23 = assay: as above; assay type: cell-based; conditions: Homo sapiens; 10 μM; NCI-H23, Non-small Cell Lung Cancer; read-out: Growth percent rate
ACHN = assay: NCI60 one-dose screen (10 μM), Renal Cancer; assay type: cell-based; conditions: Homo sapiens, 10 μM, Renal Cancer, read-out: Growth percent rate
DU-145 = assay: NCI60 one-dose screen (10 μM), Prostate Cancer; assay type: cell-based; conditions: Homo sapiens; 10 μM; DU-145, Prostate Cancer; read-out: Growth percent rate
SN12C = assay: NCI60 one-dose screen (10 μM), Renal Cancer; assay type: cell-based; conditions: Homo sapiens, 10 μM, Renal Cancer, read-out: Growth percent rate
SNB-19 = assay: NCI60 one-dose screen (10 μM), CNS Cancer; assay type: cell-based; conditions: Homo sapiens; 10 μM; SNB-19, CNS Cancer; read-out: Growth percent rate

Compound: CC[C@]12C=CCN3CC[C@@]4(c5ccc(OC)cc5N(C)[C@H]4[C@@](O)(C(=O)OC)[C@@H]1OC(=O)CCCN1CCN(c4ccc(C(F)(F)F)cc4)CC1)[C@@H]32 [Compound 22]
- activity at 10 µM (A498): -15.1%
- activity at 10 µM (HOP-62): 0.03%
- activity at 10 µM (HT29): -70.3%
- activity at 10 µM (OVCAR-4): -18.9%
- activity at 10 µM (UACC-257): -79.3%
- activity at 10 µM (MOLT-4): 9.3%
- activity at 10 µM (A549/ATCC): 4.54%
- activity at 10 µM (SK-MEL-2): -93.9%
- activity at 10 µM (NCI-H460): -36.9%
- activity at 10 µM (M14): -75.5%
- activity at 10 µM (MCF7): -51.5%
- activity at 10 µM (OVCAR-3): -71.5%
- activity at 10 µM (RPMI-8226): -9.29%
- growth percent rate (SK-MEL-5; 10 μM one-dose, SK-MEL-5 melanoma, negative = lethality): −98.54%
- activity at 10 µM (SK-MEL-5; Homo sapiens, 10 μM, SK-MEL-5, Melanoma, read-out: Growth percent rate): -98.5%
- activity at 10 µM (KM12): -70%
- activity at 10 µM (MALME-3M): -90.3%
- activity at 10 µM (HL-60(TB)): 7.9%
- activity at 10 µM (SF-268): 0.04%
- activity at 10 µM (IGROV1): -28.9%
- activity at 10 µM (NCI-H322M): 50.5%
- activity at 10 µM (SF-295): -84.8%
- activity at 10 µM (SNB-75): 2.76%
- activity at 10 µM (786–0): -72.7%
- activity at 10 µM (MDA-MB-435): -78.9%
- activity at 10 µM (U251): -88.4%
- activity at 10 µM (K-562): 6.96%
- activity at 10 µM [1]: -44.5%
- activity at 10 µM (CCRF-CEM): 3.97%
- activity at 10 µM (NCI-H522): -86%
- activity at 10 µM (CAKI-1): -65%
- activity at 10 µM (SW-620): 7.47%
- activity at 10 µM (OVCAR-8): -47.4%
- activity at 10 µM (HCT-116): -25.6%
- activity at 10 µM (TK-10): -48.5%
- activity at 10 µM (HCC-2998): -82.3%
- activity at 10 µM (SK-MEL-28): -92.1%
- activity at 10 µM (EKVX): -49.9%
- activity at 10 µM (NCI-H23): -61.1%
- activity at 10 µM (ACHN): -20.3%
- activity at 10 µM (DU-145): -38.8%
- activity at 10 µM (SN12C): -66.4%
- activity at 10 µM (SNB-19): -3.08%

Source: article PMC11277489, “Novel Piperazine Derivatives of Vindoline as Anticancer Agents” (International Journal of Molecular Sciences, 2024)
